Several values for one entry are separate records, joined by “and”; a condition that tells them apart may be missing. Identical values can stand only once. Like-named read-outs stand apart in the source and are kept apart here.

Assay [1] has as its system LHGFR0N3C. Description: Specificity of purified LHGFR0N3C, emission ratio with 240 μM compounds. Type of assay: binding, Pseudomonas putida W619. The following applies: 240 μM compound. Here is the method:
(§1) Purified L-2-HG biosensors and different compounds were diluted by 50 mM Tris-HCl buffer (pH 7.4), mixed together in a black 96-well plate at a volume ratio of 3:1, and the fluorescence intensities were measured using an EnSight microplate reader (PerkinElmer, USA) with excitation at 430 nm, emission at 485 nm (mTFP) and 528 nm (Venus). […] The [L-2-HG], Kd, and p refer to the L-2-HG concentration, apparent dissociation constant, and Hill slope, respectively. Emission spectra were recorded at 430 nm excitation, in steps of 2 nm. Excitation spectra were recorded using emission at 550 nm, excitation from 380 to 535 nm in steps of 2 nm.

Assay [2] has as its system LHGFR0N7C. Description: Influence of other compounds on the response of purified LHGFR0N7C to L-2-HG. The following applies: Suppl. Fig. 9b; L-2-HG alone or with the compound; three replicates. It is filed as binding, Pseudomonas putida W619. As for the experimental part: as §1
Assay [3] deals with LhgR. The assay is described as follows: EMSA, effect of compounds on LhgR binding to the lhgO promoter region F1. Details: species or system Pseudomonas putida W619. The following applies: 50 mM compound, 10 nM F1, 60 nM LhgR. As for the experimental part: Electrophoretic mobility shift assays (EMSAs) were carried out using the DNA fragment (F1 or F2) and purified LhgR. The DNA fragments were first amplified by primer pairs F1-F/F1-R and F2-F/F2-R, respectively. Then, either fragment at a concentration of 10 nM DNA was incubated with LhgR (0–160 nM) in 20 μL EMSA binding buffer (10 mM Tris-HCl [pH 7.4], 50 mM KCl, 0.5 mM EDTA, 10% [vol/vol] glycerol, and 1 mM dithiothreitol [DTT]). The binding reactions were carried out at 30 °C for 30 min. Electrophoresis was performed on 6% native polyacrylamide gels at 4 °C and 170 V (constant voltage) for about 45 min, followed by staining with SYBR green I (TaKaRa, China) and photographing. Analysis of the interaction between lhgO promoter region (F1) and LHGFR was performed using the same procedure.
To characterize the effector of LhgR, purified LhgR was first incubated with L-lysine, 5-aminovalerate, glutarate, L-2-HG, D-2-HG, 2-KG, or succinate at 30 °C for 15 min, followed by incubation with the added DNA fragments at 30 °C for 30 min. The mixtures were subsequently subjected to electrophoresis.
On the technique in general: Mobility shift assays separate free from complexed probe on a gel.

Assay [4] relates to LHGFR0N3C. Description: Influence of other compounds on the response of purified LHGFR0N3C to L-2-HG. It is filed as binding, Pseudomonas putida W619. The following applies: Suppl. Fig. 9a; L-2-HG alone or with the compound; three replicates. Here is the method: as §1
In assay [5] the test system is LHGFR0N7C. Description: Specificity of purified LHGFR0N7C, emission ratio with 240 μM compounds. Type of assay: binding, Pseudomonas putida W619. The following applies: 240 μM compound. Here is the method: as §1
Assay [6] relates to HEK293FT cells. The assay is described as follows: Hypoxia-induced L-2-HG production in LHGFR-expressing HEK293FT cells with or without 5 mM DMαKG. Type of assay: cell-based, human. The following applies: for L-2-HG concentration: in µM. As for the experimental part: HEK293FT cells were cultured in high-glucose Dulbecco’s modified eagle medium (DMEM) supplemented with 10% (vol/vol) fetal bovine serum (FBS), 100 units mL^−1 penicillin, and 100 μg mL^−1 streptomycin (all purchased from ThermoFisher, USA), and kept at 37 °C in humidified air containing 5% CO2. For hypoxia experiments, cells were kept in a compact O2 and CO2 subchamber controller (ProOx C21, BioSpherix, USA) at 2% O2, 5% CO2, and balanced with N2 for 24 h. For the construction of LHGFR expressing cell, HEK293FT cells were plated in 24-well plates so that they reached 70-90% confluency 24 h after plating, the medium was refreshed 2 h before transfection.
The preparation of cell suspensions and the measurement of emission ratios were performed using the same procedure. The background fluorescence was subtracted at each emission wavelength.

Assay [7] has as its system P. putida KT2440. It is filed as cell-based, Pseudomonas putida KT2440. The following applies: Fig. 4j. Here is the method: The bacterial strains used in this study are listed in Supplementary Data 1. E. coli and its derivatives were cultured in Luria–Bertani (LB) broth at 37 °C and 180 rpm. P. putida KT2440 and its derivatives were grown in minimal salt mediums (MSMs) containing different carbon sources at 30 °C and 200 rpm. Antibiotics were used at the following concentrations: tetracycline at 30 μg mL^−1; kanamycin at 50 μg mL^−1; ampicillin at 100 μg mL^−1; spectinomycin, at 50 μg mL^−1; and chloramphenicol at 40 μg mL^−1.

Assay [8] relates to P. putida KT2440. It is filed as cell-based, Pseudomonas putida KT2440.

Turning to `O=C(O)CCC(=O)C(=O)O` [2-KG, 2-ketoglutarate], the Emission ratio in assay [1] is 1.349 and 1.385 and 1.381; in assay [2] it was 2.436 and 2.603 and 2.441; in assay [4] it was 2.007 and 2.049 and 2.099; in assay [5], 1.701 and 1.693 and 1.728. Also, the “Induction of emission ratio changes” value in assay [1] and in assay [5] was “None” each time. Also, in assay [3], the “Effect on LhgR binding to the lhgO promoter region F1” value (from here on “Effect on LhgR binding”) is on record as “observed only in the presence of L-2-HG”.

Consider `NCCCCC(=O)O` [5-Aminovalerate, 5-aminovalerate], for which the Emission ratio in assay [1] was 1.403 and 1.397 and 1.408; in assay [2] it was 2.625 and 2.696 and 2.709; in assay [4] it was 2.084 and 2.019 and 2.1; in assay [5], 1.703 and 1.69 and 1.7015. Besides, the “Induction of emission ratio changes” value in assay [1] and in assay [5] was “None” each time. Besides, the “Effect on LhgR binding” value in assay [3] is given as “observed only in the presence of L-2-HG”.

For `COC(=O)CCC(=O)C(=O)OC` [DMaKG], the Normalized emission ratio in assay [6] (2% O2, With DMaKG, Supplementary Fig. 18e) was 1.018 and 0.9342 and 1.029 and 0.9552; in assay [6] (21% O2, With DMaKG, Supplementary Fig. 18e), 1.029 and 0.993 and 1.008 and 0.9754; in assay [6] (Fig. 6f, 2% O2, With DMaKG), 1.196 and 1.188 and 1.187 and 1.206; in assay [6] (Fig. 6f, 21% O2, With DMaKG), 1.081 and 1.084 and 1.102 and 1.071. Moreover, the L-2-HG concentration in assay [6] (Fig. 6f, 2% O2, With DMaKG) is 547.911 and 427.301 and 412.83 and 794.44; in assay [6] (Fig. 6f, 21% O2, With DMaKG), 66.2807 and 68.36 and 87.5008 and 58.4114.

For `OC[C@H]1OC(O)[C@H](O)[C@@H](O)[C@@H]1O` (some centres unmarked) [Glucose, glucose], the Growth in assay [7] (DlhgO, 0 h) is 0.077 and 0.079 and 0.073; in assay [7] (DlhgO, 2 h), 0.083 and 0.078 and 0.075; in assay [7] (DlhgO, 4 h), 0.24 and 0.208 and 0.228; in assay [7] (DlhgO, 6 h), 0.666 and 0.603 and 0.661; in assay [7] (DlhgO, 8 h), 1.5 and 1.401 and 1.461; in assay [7] (DlhgO, 10 h), 3.165 and 3.065. The Growth in assay [7] (DlhgO, 12 h) is 3.835 and 3.65 and 3.86; in assay [7] (DlhgO, 14 h), 3.605 and 3.535 and 3.66; in assay [7] (DlhgO, 16 h), 3.66 and 3.5 and 3.7; in assay [7] (WT, 0 h) it was 0.077 and 0.08 and 0.081; in assay [7] (WT, 2 h) it was 0.079 and 0.092; in assay [7] (WT, 4 h), 0.25 and 0.292 and 0.281. Moreover, the Growth in assay [7] (WT, 6 h) was 0.635 and 0.605 and 0.701; in assay [7] (WT, 8 h), 1.404 and 1.446 and 1.5; in assay [7] (WT, 10 h), 2.675 and 2.785 and 2.9; in assay [7] (WT, 12 h), 3.11 and 3.205 and 3.1; in assay [7] (WT, 14 h), 3.13 and 3.115 and 3.035; in assay [7] (WT, 16 h), 3.015 and 3.115 and 3.15. The “Extracellular L-2-HG accumulation” value in assay [8] (DlhgO, 0 h, Fig. 4l) is 0.0018 and 0.00159 and 0.00178; in assay [8] (DlhgO, 2 h, Fig. 4k) it was 0.00214 and 0.00144 and 0.00151; in assay [8] (DlhgO, 2 h, Fig. 4l) it was 0.00161 and 0.00173 and 0.00155; in assay [8] (DlhgO, 4 h, Fig. 4l) it was 0.00126 and 0.00158 and 0.00143; in assay [8] (DlhgO, 6 h, Fig. 4k), 0.0027 and 0.00158 and 0.00192; in assay [8] (DlhgO, 6 h, Fig. 4l), 0.00592 and 0.00434 and 0.00414. Besides, the “Extracellular L-2-HG accumulation” value in assay [8] (DlhgO, 8 h, Fig. 4l) is 0.00588 and 0.0049 and 0.00675; in assay [8] (DlhgO, 10 h, Fig. 4k) it was 0.00624 and 0.00847 and 0.00636; in assay [8] (DlhgO, 10 h, Fig. 4l), 0.00724 and 0.00794 and 0.00631; in assay [8] (DlhgO, 12 h, Fig. 4k) it was 0.0023 and 0.00219 and 0.00146; in assay [8] (DlhgO, 12 h, Fig. 4l) it was 0.0051 and 0.00546 and 0.00628; in assay [8] (DlhgO, 14 h, Fig. 4l) it was 0.00618 and 0.0058 and 0.00573. The “Extracellular L-2-HG accumulation” value in assay [8] (DlhgO, 16 h, Fig. 4k) was 0.00357 and 0.00321 and 0.00356; in assay [8] (DlhgO, 16 h, Fig. 4l), 0.00553 and 0.0046 and 0.00552; in assay [8] (WT, 0 h, Fig. 4k) it was 6.56E-04 and 9.68E-04 and 7.73E-04; in assay [8] (WT, 0 h, Fig. 4l), 9.79E-04 and 0.00104 and 6.27E-04; in assay [8] (WT, 2 h, Fig. 4k), 1.95E-04 and 2.26E-04 and 1.15E-04; in assay [8] (WT, 2 h, Fig. 4l), 0.00114 and 7.97E-04 and 9.51E-04. For the same molecule, the “Extracellular L-2-HG accumulation” value in assay [8] (WT, 4 h, Fig. 4l) was 5.39E-04 and 5.72E-04 and 5.29E-04; in assay [8] (WT, 6 h, Fig. 4l), 0.00521 and 0.00557 and 0.00468; in assay [8] (WT, 8 h, Fig. 4k) it was 0.00293 and 0.00233 and 0.00276; in assay [8] (WT, 8 h, Fig. 4l) it was 0.0081 and 0.00438 and 0.0052; in assay [8] (WT, 10 h, Fig. 4l) it was 0.00453 and 0.00483 and 0.00472; in assay [8] (WT, 12 h, Fig. 4l), 0.00448 and 0.00573 and 0.00522. The “Extracellular L-2-HG accumulation” value in assay [8] (WT, 14 h, Fig. 4k) was 0.00683 and 0.00582 and 0.00462; in assay [8] (WT, 14 h, Fig. 4l), 0.0046 and 0.00456 and 0.00492; in assay [8] (WT, 16 h, Fig. 4k), 0; in assay [8] (WT, 16 h, Fig. 4l), 0.00403 and 0.00579 and 0.0044.

For the molecule `NCCCC[C@H](N)C(=O)O` [L-Lysine, L-lysine], the Emission ratio is 1.377 and 1.382 and 1.394 in assay [1]; 2.577 and 2.607 and 2.654 in assay [2]; 2.026 and 2.06 and 2.101 in assay [4]; 1.692 and 1.701 and 1.71 in assay [5]. Moreover, the “Induction of emission ratio changes” value in assay [1] and in assay [5] was “None” each time. For the same molecule, in assay [3], the “Effect on LhgR binding” value is listed as “observed only in the presence of L-2-HG”.

`O=C(O)CCC(=O)O` [Succinate, succinate]: the Emission ratio was 1.357 and 1.389 and 1.4025 in assay [1]; 2.581 and 2.619 and 2.616 in assay [2]; 2.013 and 2.0132 and 2.099 in assay [4]; 1.718 and 1.724 and 1.726 in assay [5]. In addition, the “Induction of emission ratio changes” value in assay [1] and in assay [5] was “None” in each case. Further, in assay [3], the “Effect on LhgR binding” value was “observed only in the presence of L-2-HG”.
